Results taken from ChEMBL document CHEMBL1148572, “1-((S)-2-aminopropyl)-1H-indazol-6-ol: a potent peripherally acting 5-HT2 receptor agonist with ocular hypotensive activity” (J Med Chem, 2006).

How the values were obtained:
[1] = target: T1, 5-hydroxytryptamine receptor 2A (Rattus norvegicus, UniProt P14842); assay type: tissue-based, Cerebral cortex
[2] = Distribution coefficient at pH 7.4; assay type: physicochemical; details: octanol/water
[3] = Half life in phosphate buffer at pH 7.4 in 25 degC; assay type: ADME
MDR1 (P-gp) [4] = assay: Permeability from apical to basolateral side of the MDCK cell transfected with human MDR1; assay type: ADME, cell-based
[5] = target: T1, 5-hydroxytryptamine receptor 2A; assay: (§1) Activity against 5HT2A mediated intracellular calcium mobilization by FLIPR in rat vascular smooth muscle cells; assay type: functional, cell-based
[6] = target: 5-hydroxytryptamine receptor 2A (Rattus norvegicus) (UniProt P14842); assay: as §1; assay type: functional, cell-based
MDR1 (P-gp) [7] = assay: Permeability from basolateral to apical side of the MDCK cell transfected with human MDR1; assay type: ADME, cell-based
[8] = target: T2, 5-hydroxytryptamine receptor 2C (Rattus norvegicus) (UniProt P08909); assay: Activity against recombinant rat 5HT2C mediated intracellular calcium mobilization by FLIPR in SR3T3 cells
T2 sequence (whole entry): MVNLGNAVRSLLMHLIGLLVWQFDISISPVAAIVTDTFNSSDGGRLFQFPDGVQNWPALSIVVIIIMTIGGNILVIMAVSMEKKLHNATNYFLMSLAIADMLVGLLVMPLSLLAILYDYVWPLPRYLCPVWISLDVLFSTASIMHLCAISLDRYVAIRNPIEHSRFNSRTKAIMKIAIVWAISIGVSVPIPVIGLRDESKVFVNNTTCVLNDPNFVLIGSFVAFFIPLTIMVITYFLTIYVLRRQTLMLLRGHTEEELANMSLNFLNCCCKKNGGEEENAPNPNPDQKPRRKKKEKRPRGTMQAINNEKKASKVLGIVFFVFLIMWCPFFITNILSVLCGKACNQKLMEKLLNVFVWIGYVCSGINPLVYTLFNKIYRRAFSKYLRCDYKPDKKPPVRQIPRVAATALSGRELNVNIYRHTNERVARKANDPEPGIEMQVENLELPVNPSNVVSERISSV

[9] = target: 5-hydroxytryptamine receptor 2A (Homo sapiens, UniProt P28223); assay type: cell-based, CHO
[10] = target: 5-hydroxytryptamine receptor 2B (Rattus norvegicus, UniProt P30994); assay: Activity against 5HT2B receptor in longitudinal stomach fundus strips in wistar rats
[11] = target: T3, 5-hydroxytryptamine receptor 2C (Homo sapiens, UniProt P28335); assay: biochemical
T3 sequence (P28335 whole entry): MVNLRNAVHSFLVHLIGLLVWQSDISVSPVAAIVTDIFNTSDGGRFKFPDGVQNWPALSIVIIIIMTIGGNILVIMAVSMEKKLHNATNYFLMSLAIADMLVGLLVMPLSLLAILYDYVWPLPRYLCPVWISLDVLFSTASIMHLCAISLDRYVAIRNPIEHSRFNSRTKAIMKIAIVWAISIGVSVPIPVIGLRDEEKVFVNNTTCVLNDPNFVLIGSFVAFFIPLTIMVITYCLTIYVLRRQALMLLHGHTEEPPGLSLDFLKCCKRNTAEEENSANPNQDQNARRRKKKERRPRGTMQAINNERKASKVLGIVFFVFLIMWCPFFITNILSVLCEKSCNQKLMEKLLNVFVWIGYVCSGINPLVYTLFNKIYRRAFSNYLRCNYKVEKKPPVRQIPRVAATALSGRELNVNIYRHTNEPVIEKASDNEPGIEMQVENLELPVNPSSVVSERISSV
Description: Displacement of [125I]DOI from cloned human 5HT2C receptor expressed in CHO cells

[12] = target: 5-hydroxytryptamine receptor 2B (Homo sapiens, UniProt P41595); assay: biochemical
Description: Displacement of [125I]DOI from cloned human 5HT2B receptor expressed in CHO cells

[13] = target: T4, 5-hydroxytryptamine receptor 2C (Rattus norvegicus, UniProt P08909); assay: Activity against recombinant rat 5HT2C mediated intracellular calcium mobilization by FLIPR in SR3T3 cells
T4 sequence (P08909 whole entry): T2 sequence (whole entry)

MDR1 (P-gp) [14] = assay: in vitro; details: human, MDCK-MDR1
Description: Ratio of permeability from basolateral to apical over apical to basolateral side of the MDCK cell transfected with human MDR1

[15] = Half life in phosphate buffer at pH 7.4 in 45 degC; assay type: ADME
[16] = target: T5, Alpha-2C adrenergic receptor (Homo sapiens, UniProt P18825); assay: Activity at adrenergic Alpha-2C receptor expressed in rat-mouse hybrid […] cell by adenylyl cyclase assay; assay type: functional, cell-based
T5 sequence (P18825 whole entry): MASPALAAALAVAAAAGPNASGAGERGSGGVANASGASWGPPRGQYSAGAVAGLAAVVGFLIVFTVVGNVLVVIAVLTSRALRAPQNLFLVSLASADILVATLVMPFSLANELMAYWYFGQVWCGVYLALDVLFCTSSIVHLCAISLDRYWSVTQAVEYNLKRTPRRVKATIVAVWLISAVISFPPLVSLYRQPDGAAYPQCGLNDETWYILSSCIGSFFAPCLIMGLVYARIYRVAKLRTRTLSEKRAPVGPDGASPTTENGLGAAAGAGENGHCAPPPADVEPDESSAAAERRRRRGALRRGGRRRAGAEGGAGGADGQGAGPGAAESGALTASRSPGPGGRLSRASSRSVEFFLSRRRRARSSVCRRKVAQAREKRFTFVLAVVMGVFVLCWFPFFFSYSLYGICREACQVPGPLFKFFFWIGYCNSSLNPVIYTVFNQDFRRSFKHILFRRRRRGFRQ

[17] = target: 5-hydroxytryptamine receptor 7 (Homo sapiens, UniProt P34969); assay: Activity at 5HT7 receptor expressed in human corneal epithelial CEPI-17-CL4 cells by adenylyl cyclase assay; assay type: functional, cell-based, Cornea
[18] = target: T6, Alpha-2A adrenergic receptor (Homo sapiens, UniProt P08913); assay: Activity at adrenergic alpha2A receptor expressed in human clonic adenocarcinoma HT29 cell by […]; assay type: functional, cell-based, HT-29
T6 sequence (P08913 whole entry): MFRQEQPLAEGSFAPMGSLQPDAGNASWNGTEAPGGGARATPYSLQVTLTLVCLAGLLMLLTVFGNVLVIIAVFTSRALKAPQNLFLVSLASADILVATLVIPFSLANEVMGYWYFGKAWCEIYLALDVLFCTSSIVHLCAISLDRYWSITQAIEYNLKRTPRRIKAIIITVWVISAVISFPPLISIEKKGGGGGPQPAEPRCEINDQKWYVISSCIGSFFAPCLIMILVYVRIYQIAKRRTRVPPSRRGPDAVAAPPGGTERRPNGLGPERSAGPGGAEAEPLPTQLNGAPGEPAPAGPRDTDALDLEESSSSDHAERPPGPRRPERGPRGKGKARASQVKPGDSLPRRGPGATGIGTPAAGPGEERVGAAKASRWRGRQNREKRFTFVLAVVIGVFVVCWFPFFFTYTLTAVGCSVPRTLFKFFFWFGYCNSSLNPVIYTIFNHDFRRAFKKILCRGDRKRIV

[19] = target: Alpha-2B adrenergic receptor (Homo sapiens, UniProt P18089); assay: Activity at adrenergic alpha-2B receptor expressed in opposum kidney OK cell by adenylyl cyclase assay; assay type: functional, cell-based
[20] = target: T7, 5-hydroxytryptamine receptor 1A (Homo sapiens, UniProt P08908); assay: Agonistic activity at cloned human 5HT1A receptor expressed in CHO cells by inhibition of forskolin-induced cAMP production; assay type: functional, cell-based
T7 sequence (P08908 whole entry): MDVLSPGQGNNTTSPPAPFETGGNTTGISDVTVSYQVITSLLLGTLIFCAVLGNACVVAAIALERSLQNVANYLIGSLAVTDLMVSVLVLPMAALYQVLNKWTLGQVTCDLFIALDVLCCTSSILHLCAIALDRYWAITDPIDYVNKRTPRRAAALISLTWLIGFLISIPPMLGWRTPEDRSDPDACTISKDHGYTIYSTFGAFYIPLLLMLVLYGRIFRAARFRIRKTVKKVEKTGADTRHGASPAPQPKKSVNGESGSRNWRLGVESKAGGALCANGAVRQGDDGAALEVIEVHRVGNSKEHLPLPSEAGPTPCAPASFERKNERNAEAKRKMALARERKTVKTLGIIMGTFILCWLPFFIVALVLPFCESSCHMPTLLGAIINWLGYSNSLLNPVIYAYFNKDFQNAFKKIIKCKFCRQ

[21] = target: T6, Alpha-2A adrenergic receptor; assay: Activity at adrenergic alpha-2A receptor expressed in human clonic adenocarcinoma HT29 cell by adenylyl cyclase assay; assay type: functional, cell-based, HT-29

5-hydroxytryptamine receptor 2A (Homo sapiens, UniProt P28223), sequence (P28223 whole entry): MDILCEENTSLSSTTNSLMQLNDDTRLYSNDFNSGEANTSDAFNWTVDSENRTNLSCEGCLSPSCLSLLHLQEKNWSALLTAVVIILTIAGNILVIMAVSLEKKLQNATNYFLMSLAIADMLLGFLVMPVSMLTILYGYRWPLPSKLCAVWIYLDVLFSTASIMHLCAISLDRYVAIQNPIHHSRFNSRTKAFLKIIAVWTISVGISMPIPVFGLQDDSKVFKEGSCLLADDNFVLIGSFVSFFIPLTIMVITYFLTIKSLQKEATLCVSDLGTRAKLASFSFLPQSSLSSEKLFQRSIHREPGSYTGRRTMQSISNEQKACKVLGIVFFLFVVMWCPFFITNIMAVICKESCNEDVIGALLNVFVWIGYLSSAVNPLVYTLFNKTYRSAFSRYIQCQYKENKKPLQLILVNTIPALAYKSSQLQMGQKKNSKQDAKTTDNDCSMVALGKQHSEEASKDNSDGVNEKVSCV
5-hydroxytryptamine receptor 2B (Rattus norvegicus, UniProt P30994), sequence (P30994 whole entry): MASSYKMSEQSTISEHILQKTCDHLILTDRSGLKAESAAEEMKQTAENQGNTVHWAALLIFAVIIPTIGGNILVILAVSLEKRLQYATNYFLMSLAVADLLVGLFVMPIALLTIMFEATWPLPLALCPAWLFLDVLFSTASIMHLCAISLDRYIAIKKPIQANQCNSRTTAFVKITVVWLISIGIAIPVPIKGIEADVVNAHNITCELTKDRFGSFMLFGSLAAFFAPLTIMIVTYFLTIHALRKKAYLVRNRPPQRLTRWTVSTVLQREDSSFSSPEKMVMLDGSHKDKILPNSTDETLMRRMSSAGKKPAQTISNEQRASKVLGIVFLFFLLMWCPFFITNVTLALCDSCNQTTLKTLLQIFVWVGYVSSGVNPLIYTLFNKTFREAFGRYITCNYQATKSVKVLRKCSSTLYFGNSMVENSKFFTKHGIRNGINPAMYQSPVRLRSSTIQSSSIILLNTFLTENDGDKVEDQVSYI
5-hydroxytryptamine receptor 2B (Homo sapiens, UniProt P41595), sequence (P41595 whole entry): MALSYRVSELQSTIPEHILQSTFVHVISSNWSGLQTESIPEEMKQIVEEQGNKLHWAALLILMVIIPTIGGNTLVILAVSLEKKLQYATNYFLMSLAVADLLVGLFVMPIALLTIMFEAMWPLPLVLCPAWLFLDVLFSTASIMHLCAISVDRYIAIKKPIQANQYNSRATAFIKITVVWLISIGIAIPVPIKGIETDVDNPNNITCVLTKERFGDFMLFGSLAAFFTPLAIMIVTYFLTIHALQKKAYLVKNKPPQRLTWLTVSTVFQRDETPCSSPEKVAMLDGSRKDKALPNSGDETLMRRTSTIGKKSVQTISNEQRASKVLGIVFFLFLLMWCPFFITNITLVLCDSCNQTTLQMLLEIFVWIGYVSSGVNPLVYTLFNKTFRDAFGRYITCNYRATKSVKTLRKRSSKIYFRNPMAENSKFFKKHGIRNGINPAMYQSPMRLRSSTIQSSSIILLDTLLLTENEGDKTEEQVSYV
5-hydroxytryptamine receptor 2A (Rattus norvegicus), sequence (P14842 whole entry): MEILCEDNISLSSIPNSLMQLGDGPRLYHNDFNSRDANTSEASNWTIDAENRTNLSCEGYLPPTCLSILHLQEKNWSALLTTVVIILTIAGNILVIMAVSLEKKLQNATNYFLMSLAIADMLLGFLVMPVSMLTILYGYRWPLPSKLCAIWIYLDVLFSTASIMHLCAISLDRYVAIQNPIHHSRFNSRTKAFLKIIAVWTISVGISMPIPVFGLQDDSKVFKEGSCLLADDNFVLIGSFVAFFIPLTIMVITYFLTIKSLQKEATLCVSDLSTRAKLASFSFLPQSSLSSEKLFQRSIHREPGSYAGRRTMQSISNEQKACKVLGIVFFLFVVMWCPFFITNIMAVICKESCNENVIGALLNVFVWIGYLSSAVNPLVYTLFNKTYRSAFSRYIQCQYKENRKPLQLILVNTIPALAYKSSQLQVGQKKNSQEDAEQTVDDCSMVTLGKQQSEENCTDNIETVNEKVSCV
T1 sequence (P14842 whole entry): as above
Alpha-2B adrenergic receptor, sequence (P18089 whole entry): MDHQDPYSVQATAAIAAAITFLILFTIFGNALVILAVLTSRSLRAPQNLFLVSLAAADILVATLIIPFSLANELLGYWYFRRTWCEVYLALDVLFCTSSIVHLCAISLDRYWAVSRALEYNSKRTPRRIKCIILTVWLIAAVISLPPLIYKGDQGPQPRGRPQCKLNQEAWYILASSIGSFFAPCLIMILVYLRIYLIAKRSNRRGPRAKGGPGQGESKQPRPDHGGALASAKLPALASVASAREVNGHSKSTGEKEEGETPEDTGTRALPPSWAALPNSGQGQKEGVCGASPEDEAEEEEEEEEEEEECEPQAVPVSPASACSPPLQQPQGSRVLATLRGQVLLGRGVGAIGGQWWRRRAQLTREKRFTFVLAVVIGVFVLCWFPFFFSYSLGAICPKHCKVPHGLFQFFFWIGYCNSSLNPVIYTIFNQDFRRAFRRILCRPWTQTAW
5-hydroxytryptamine receptor 7, sequence (P34969 whole entry): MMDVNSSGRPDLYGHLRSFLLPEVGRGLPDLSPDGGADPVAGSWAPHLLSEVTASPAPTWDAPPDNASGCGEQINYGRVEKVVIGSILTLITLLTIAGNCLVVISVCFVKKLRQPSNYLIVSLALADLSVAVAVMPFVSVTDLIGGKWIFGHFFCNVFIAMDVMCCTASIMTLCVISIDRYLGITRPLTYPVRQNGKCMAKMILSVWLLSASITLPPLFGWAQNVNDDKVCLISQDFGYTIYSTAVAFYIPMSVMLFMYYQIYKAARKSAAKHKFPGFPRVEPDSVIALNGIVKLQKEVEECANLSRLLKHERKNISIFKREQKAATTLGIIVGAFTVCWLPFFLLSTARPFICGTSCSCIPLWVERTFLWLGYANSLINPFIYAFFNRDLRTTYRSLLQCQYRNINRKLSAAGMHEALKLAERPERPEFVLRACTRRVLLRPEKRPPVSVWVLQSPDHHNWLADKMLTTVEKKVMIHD

| SMILES | IC50 [1] [nM] | logD [2] | T1/2 [3] [yr] | Papp A→B (MDR1 (P-gp) [4]) [×10⁻⁶ cm/s] | EC50 [5] [nM] | Emax [6] [%] | Papp B→A (MDR1 (P-gp) [7]) [×10⁻⁶ cm/s] | Emax [8] [%] | Ki [9] [nM] | EC50 [10] [nM] | Ki [11] [nM] | Ki [12] [nM] | EC50 [13] [nM] | also measured |
| --- | --- | --- | --- | --- | --- | --- | --- | --- | --- | --- | --- | --- | --- | --- |
| Cc1c(O)ccc2cnn(C[C@H](C)N)c12 | 0.74 | 1.28 | 0.73 | 2.49 | 81.3 | 89 | 3.12 | 91 | 1.8 | 8.9 | 3.6 | 8.7 | 7.3 |  |
| C[C@H](N)Cn1ncc2ccc(O)c(Cl)c21 | 0.54 | 1.09 | 4 | 1.65 | 59.7 | 87 | 4.94 | 104 | 12 | 5.9 | 1.2 | 3.8 | 4.9 | efflux ratio (MDR1 (P-gp) [14]): 3 |
| COc1ccc2[nH]cc(CC(C)N)c2c1 (configuration not stated) | 2 |  |  |  | 47.5 | 96 |  | 103 |  | 2.7 |  |  | 3.1 |  |
| NCCn1ncc2ccc(O)cc21 | 0.77 | 0.254 | 3.7 | 0.64 | 74.4 | 75 | 0.6 | 104 | 20 | 8.6 | 9.6 | 15 | 4.5 |  |
| COc1ccc2[nH]cc(CCN(C)C)c2c1 [MEBUFOTENIN] | 9.53 | 3.3 |  | 16.1 | 462 | 70 | 14.4 | 89 |  |  |  |  |  |  |
| C[C@H](N)Cn1ncc2ccc(O)c(F)c21 | 0.73 | 0.394 | 1.4 | 1.11 | 58.1 | 80 | 1.66 | 100 | 5.8 | 6.1 | 1 | 1.7 | 5.5 | efflux ratio (MDR1 (P-gp) [14]): 1.5 |
| CC(N)Cc1c[nH]c2ccc(O)cc12 (configuration not stated) |  |  |  |  |  | 96 |  | 100 |  |  |  |  |  | T1/2 [15]: 0.071 yr |
| COc1cc(C[C@@H](C)N)c(OC)cc1I | 0.21 | 2.72 |  | 12.6 | 19.8 | 35 | 23.2 |  |  | 11.9 |  |  | 30.2 |  |
| C[C@H](N)Cn1ncc2ccc(O)c(I)c21 | 1.68 | 3 |  | 1.22 | 204 | 73 | 3.46 |  | 21 |  | 4.8 | 6 |  |  |
| C[C@@H](N)Cn1ncc2ccc(O)cc21 | 2.08 |  |  |  | 236 | 61 |  | 97 | 105 | 85 | 34 | 35 | 87.3 | EC50 [16]: 5660 nM; EC50 [17]: > 10000 nM; EC50 [18]: 1990 nM; EC50 [19]: 4710 nM; EC50 [20]: 2890 nM; EC50 [21]: > 10000 nM |
| NCCc1c[nH]c2ccc(O)cc12 [SEROTONIN] |  |  |  |  |  | 99 |  | 94 |  |  |  |  |  | T1/2 [15]: 0.03 yr |
| COc1ccc2cnn(C[C@H](C)N)c2c1 | 1.91 | 2.08 |  | 14.1 | 54 | 90 | 19.5 | 103 | 16 | 4.2 | 1.5 | 7.5 | 6.7 |  |
